Source: patent US9078902B2, “Triazine derivatives and their therapeutical applications” (NantBioScience, Inc., priority 2010, dated 2015)

Experiments:
Format in all cases: biochemical
Flt3 kinase = target: T1, Flt3 kinase (Homo sapiens, UniProt P36888); test: Flt3 kinase assay (KinaseProfiler / Kinase Hotspot)
T1 construct: purchased Millipore (KinaseProfiler Service); also Reaction Biology Corp. (Kinase HotSpot)
T1 sequence (P36888 27-993): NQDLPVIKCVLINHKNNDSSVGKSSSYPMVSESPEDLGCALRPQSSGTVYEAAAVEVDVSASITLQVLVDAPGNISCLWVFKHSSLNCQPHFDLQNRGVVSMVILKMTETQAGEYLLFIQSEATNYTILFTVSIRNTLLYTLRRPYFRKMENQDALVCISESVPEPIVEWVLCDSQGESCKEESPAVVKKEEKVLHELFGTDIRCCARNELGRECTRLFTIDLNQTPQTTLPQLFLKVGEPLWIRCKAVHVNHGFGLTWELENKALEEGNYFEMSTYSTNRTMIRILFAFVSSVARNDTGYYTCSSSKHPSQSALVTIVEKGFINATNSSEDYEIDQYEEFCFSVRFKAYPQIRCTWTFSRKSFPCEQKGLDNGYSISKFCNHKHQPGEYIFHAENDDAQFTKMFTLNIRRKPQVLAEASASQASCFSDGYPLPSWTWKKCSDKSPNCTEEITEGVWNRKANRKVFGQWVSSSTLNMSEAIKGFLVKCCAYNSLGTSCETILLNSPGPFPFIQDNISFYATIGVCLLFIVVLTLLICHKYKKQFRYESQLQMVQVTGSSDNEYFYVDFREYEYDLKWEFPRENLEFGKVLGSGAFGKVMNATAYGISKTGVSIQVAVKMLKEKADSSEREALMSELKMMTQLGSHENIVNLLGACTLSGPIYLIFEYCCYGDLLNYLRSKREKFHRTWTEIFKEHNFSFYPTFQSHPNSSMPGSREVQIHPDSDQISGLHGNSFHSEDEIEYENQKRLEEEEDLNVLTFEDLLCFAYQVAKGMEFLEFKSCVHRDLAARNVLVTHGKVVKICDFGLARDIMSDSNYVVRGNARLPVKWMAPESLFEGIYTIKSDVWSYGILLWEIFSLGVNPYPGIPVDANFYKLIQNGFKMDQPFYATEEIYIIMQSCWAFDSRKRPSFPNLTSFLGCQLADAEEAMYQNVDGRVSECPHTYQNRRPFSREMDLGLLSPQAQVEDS
Protocol: (§1) This example illustrated c-Src kinase, Aurora-A kinase, Flt3 kinase, Ret kinase and TrkA Kinase Assays of selected Compounds from this invention (referred to Daniele Fancelli et al, J. Med. Chem., 2006, 49 (24), pp 7247-7251). The KinaseProfiler™ Service Assay Protocols (Millipore) were used to test the kinase inhibiting activity of novel compounds from this invention. To do this, the buffer composition was as: 20 mM MOPS, 1 mM EDTA, 0.01% Brij-35, 5% Glycerol, 0.1% p-mercaptoethanol, 1 mg/mL BSA. Test compounds were initially dissolved in DMSO at the desired concentration, then serially diluted to the kinase assay buffer. In a final reaction volume of […], Aurora-A(h) (5-10 mU) is incubated with 8 mM MOPS pH 7.0, 0.2 mM EDTA, […] LRRASLG (Kemptide), 10 mM MgAcetate and [y33P-ATP]. The reaction was initiated by the addition of the MgATP mix. After incubation for 40 minute at room temperature, the reaction was stopped by addition of […] of a 3% phosphoric acid solution. […] of the reaction was then spotted onto a P30 filtermat and washed three times for 5 minutes in 50 mM phosphoric acid and once in methanol prior to drying and scintillation counting. Wells containing substrate but no kinase and wells containing a phosphopeptide control were used to set 0% and 100% phosphorylation value, repectively.
(§2) Also Kinase Hotspot SM kinase assay was used to test the compounds for IC50 or % inhibitions (Reaction Biology Corp.). Inhibitor IC50 values were determined by titration of compound at the optimal kinase concentration (Kinase EC50).

c-Src kinase = target: T2, c-Src kinase (Homo sapiens, UniProt P12931); test: c-Src kinase assay (KinaseProfiler / Kinase Hotspot); details: read-out: % Inhibition cSrc
T2 construct: purchased Millipore (KinaseProfiler Service); also Reaction Biology Corp. (Kinase HotSpot)
T2 sequence (P12931 whole entry): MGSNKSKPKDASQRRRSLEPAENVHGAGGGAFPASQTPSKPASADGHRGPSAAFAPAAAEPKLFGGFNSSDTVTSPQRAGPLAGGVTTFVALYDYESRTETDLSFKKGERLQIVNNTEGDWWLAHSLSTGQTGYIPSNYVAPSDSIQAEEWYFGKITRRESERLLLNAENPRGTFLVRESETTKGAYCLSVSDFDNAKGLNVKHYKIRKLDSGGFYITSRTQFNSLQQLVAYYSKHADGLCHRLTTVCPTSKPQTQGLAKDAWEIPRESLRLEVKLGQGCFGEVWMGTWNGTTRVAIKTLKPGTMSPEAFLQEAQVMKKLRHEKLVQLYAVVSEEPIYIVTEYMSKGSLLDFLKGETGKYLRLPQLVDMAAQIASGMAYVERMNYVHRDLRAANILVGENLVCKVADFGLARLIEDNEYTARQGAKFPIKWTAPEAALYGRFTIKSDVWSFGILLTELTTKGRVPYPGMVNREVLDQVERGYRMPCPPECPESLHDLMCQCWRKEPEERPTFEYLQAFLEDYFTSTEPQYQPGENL
Protocol: as §1, §2

TrkA Kinase = target: T3, TrkA Kinase (Homo sapiens, UniProt P04629); test: TrkA kinase assay (KinaseProfiler / Kinase Hotspot)
T3 construct: purchased Millipore (KinaseProfiler Service); also Reaction Biology Corp. (Kinase HotSpot)
T3 sequence (P04629 33-796): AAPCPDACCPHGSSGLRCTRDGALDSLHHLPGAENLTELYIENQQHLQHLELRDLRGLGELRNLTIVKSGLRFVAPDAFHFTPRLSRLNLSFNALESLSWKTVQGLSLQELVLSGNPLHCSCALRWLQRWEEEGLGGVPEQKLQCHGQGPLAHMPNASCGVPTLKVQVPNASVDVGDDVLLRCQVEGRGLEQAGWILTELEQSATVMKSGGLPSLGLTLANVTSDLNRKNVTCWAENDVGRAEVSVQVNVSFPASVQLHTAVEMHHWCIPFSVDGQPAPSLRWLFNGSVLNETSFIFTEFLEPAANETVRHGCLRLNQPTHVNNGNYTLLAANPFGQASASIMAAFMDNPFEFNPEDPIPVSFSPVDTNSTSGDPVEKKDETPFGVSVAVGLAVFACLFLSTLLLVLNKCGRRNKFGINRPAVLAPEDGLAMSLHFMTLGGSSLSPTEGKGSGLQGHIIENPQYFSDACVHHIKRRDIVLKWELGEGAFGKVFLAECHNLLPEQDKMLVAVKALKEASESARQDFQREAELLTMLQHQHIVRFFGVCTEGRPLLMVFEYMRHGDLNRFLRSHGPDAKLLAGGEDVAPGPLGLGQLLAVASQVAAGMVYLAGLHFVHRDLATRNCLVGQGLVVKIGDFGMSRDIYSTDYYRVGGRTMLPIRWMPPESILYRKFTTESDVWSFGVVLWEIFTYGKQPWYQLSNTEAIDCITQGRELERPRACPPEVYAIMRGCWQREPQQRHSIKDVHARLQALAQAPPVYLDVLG
Protocol: as §1, §2

Ret kinase = target: T4, Ret kinase (Homo sapiens, UniProt P07949); test: Ret kinase assay (KinaseProfiler / Kinase Hotspot)
T4 construct: purchased Millipore (KinaseProfiler Service); also Reaction Biology Corp. (Kinase HotSpot)
T4 sequence (P07949 29-1114): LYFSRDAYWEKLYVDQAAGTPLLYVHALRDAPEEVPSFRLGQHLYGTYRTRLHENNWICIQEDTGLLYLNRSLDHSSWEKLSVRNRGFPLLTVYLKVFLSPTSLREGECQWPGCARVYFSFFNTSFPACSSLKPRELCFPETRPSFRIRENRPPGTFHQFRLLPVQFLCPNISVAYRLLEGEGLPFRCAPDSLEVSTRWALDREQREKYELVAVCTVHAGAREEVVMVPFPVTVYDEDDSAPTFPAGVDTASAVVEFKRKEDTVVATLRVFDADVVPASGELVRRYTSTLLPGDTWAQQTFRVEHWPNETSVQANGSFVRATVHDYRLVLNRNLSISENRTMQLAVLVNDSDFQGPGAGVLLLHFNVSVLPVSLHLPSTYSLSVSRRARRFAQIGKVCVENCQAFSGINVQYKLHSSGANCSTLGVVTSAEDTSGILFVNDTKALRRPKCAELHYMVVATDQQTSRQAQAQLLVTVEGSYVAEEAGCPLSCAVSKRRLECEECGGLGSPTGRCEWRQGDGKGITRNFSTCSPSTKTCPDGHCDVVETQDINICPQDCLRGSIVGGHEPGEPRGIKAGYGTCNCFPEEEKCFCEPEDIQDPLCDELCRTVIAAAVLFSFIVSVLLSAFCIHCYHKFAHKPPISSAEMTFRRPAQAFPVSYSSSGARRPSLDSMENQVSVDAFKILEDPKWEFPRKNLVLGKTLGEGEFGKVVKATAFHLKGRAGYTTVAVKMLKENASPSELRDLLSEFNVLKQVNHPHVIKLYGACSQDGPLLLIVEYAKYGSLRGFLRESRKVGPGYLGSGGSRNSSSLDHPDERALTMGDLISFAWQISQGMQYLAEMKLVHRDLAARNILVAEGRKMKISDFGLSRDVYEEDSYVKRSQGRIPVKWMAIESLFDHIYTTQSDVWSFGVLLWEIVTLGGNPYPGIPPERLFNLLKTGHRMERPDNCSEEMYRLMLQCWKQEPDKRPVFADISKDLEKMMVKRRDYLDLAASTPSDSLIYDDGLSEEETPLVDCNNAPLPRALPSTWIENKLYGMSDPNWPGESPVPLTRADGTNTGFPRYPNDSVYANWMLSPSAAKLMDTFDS
Protocol: as §1, §2

Aurora-A kinase = target: T5, Aurora-A kinase (Homo sapiens, UniProt O14965); test: Aurora-A kinase assay (KinaseProfiler / Kinase Hotspot); details: read-out: % Inhibition Auroro-A
T5 construct: purchased Millipore (KinaseProfiler Service); also Reaction Biology Corp. (Kinase HotSpot)
T5 sequence (O14965 1-403): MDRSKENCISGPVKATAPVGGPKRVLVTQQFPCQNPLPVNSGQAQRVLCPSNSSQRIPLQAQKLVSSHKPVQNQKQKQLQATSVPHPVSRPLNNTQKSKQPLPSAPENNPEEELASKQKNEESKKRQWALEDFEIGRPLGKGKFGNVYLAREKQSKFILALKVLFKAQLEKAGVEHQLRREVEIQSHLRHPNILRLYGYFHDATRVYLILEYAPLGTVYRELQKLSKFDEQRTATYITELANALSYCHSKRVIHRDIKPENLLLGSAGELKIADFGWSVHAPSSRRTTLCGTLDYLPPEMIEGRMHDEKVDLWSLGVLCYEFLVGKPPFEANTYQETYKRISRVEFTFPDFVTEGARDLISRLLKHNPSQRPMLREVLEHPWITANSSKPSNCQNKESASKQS
Protocol: as §1, §2

SMILES | inhibition at 1 µM (Flt3 kinase) | inhibition at 1 µM (c-Src kinase) | inhibition at 1 µM (TrkA Kinase) | inhibition at 1 µM (Ret kinase) | inhibition at 1 µM (Aurora-A kinase)
CN1CCN(c2nc(Nc3cc(-c4ccco4)[nH]n3)nc(Sc3ccc(NC(=O)C4CC4)cc3)n2)CC1 [Example 5] | > 90% | < 50% | > 90% | 50 to 90% | 50 to 90%
CN1CCN(c2nc(Nc3cc(-c4cccs4)[nH]n3)nc(Sc3ccc(NC(=O)C4CC4)cc3)n2)CC1 [Example 6] | – | < 50% | > 90% | > 90% | 50 to 90%
CCc1nc(Nc2cc(-c3ccco3)[nH]n2)nc(Sc2ccc(NC(=O)C3CC3)cc2)n1 [Example 8] | – | < 50% | 50 to 90% | 50 to 90% | < 50%
CN1CCN(c2nc(Nc3cc(-c4ccco4)[nH]n3)nc(Sc3ccccc3)n2)CC1 [Example 9] | – | < 50% | > 90% | > 90% | 50 to 90%
CN1CCN(c2nc(Nc3cc(-c4ccco4)[nH]n3)nc(Sc3ccc(N)cc3)n2)CC1 [Example 10] | – | < 50% | > 90% | > 90% | 50 to 90%
CN1CCN(c2nc(Nc3ncc(-c4ccccc4)s3)nc(Sc3ccccc3)n2)CC1 [Example 14] | – | < 50% | > 90% | < 50% | < 50%
CN1CCN(c2nc(Nc3cc(-c4ccco4)[nH]n3)nc(Sc3ccc(O)cc3)n2)CC1 [Example 15] | – | 50 to 90% | > 90% | > 90% | 50 to 90%
CN1CCN(c2nc(Nc3cc(-c4ccco4)[nH]n3)nc(Sc3ccc(Cl)cc3)n2)CC1 [Example 16] | > 90% | < 50% | > 90% | 50 to 90% | 50 to 90%
CN1CCN(c2nc(Nc3cc(-c4ccco4)[nH]n3)nc(Sc3cccc(Cl)c3)n2)CC1 [Example 17] | – | < 50% | > 90% | 50 to 90% | 50 to 90%
CN1CCN(c2nc(Nc3cc(-c4ccco4)[nH]n3)nc(Sc3ccccc3Cl)n2)CC1 [Example 18] | – | < 50% | > 90% | 50 to 90% | 50 to 90%

Second part, the compound after the results:

inhibition at 1 µM (Flt3 kinase) | inhibition at 1 µM (c-Src kinase) | inhibition at 1 µM (TrkA Kinase) | inhibition at 1 µM (Ret kinase) | inhibition at 1 µM (Aurora-A kinase) | SMILES
– | < 50% | > 90% | 50 to 90% | 50 to 90% | CN1CCN(c2nc(Nc3cc(-c4ccco4)[nH]n3)nc(Sc3ccc(C(F)(F)F)cc3)n2)CC1 [Example 19]
– | 50 to 90% | – | > 90% | 50 to 90% | CN1CCN(c2nc(Nc3ccccc3)nc(Nc3cc(-c4ccco4)[nH]n3)n2)CC1 [Example 20]
< 50% | < 50% | < 50% | < 50% | < 50% | CN1CCN(c2nc(Nc3ncc(-c4cccs4)s3)nc(Sc3ccccc3)n2)CC1 [Example 21]
– | < 50% | > 90% | 50 to 90% | 50 to 90% | CN1CCN(c2nc(Nc3cc(-c4ccco4)[nH]n3)nc(Sc3cc(Cl)cc(Cl)c3)n2)CC1 [Example 22]
– | < 50% | – | 50 to 90% | 50 to 90% | CN1CCN(c2nc(Nc3cc(-c4ccco4)[nH]n3)nc(Sc3ccc(Cl)c(Cl)c3)n2)CC1 [Example 23]
– | 50 to 90% | > 90% | > 90% | 50 to 90% | COc1ccc(Sc2nc(Nc3cc(-c4ccco4)[nH]n3)nc(N3CCN(C)CC3)n2)cc1 [Example 24]
– | < 50% | > 90% | < 50% | < 50% | CN1CCN(c2nc(Nc3cc(-c4ccco4)[nH]n3)nc(Sc3ccc(OC(F)(F)F)cc3)n2)CC1 [Example 25]
– | 50 to 90% | > 90% | > 90% | 50 to 90% | CN1CCN(c2nc(Nc3cc(-c4ccco4)[nH]n3)nc(Oc3ccccc3)n2)CC1 [Example 26]
– | 50 to 90% | > 90% | > 90% | 50 to 90% | CN1CCN(c2nc(Nc3cc(-c4ccco4)[nH]n3)nc(N(C)c3ccccc3)n2)CC1 [Example 27]
– | < 50% | > 90% | > 90% | < 50% | CN1CCN(c2nc(Nc3cc(-c4ccccc4)[nH]n3)nc(Sc3ccc(NC(=O)C4CC4)cc3)n2)CC1 [Example 28]
– | 50 to 90% | > 90% | > 90% | < 50% | CN1CCN(c2nc(Nc3cc(-c4ccco4)[nH]n3)nc(Sc3cccc(NC(=O)C4CC4)c3)n2)CC1 [Example 30]
– | < 50% | < 50% | < 50% | < 50% | CN1CCN(c2nc(Nc3ncc(-c4cccs4)s3)nc(Sc3cccc(NC(=O)C4CC4)c3)n2)CC1 [Example 31]
